Values joined by “and” are separate entries in the source; they are usually repeats but may differ in a detail not shown here. Equal entries are not always repeated. Where two headings read alike, the source gives them in different places.
Legend:
[1] = molecular target: wtCaM (Homo sapiens, UniProt P0DP23); assay: Binding capacity of metal ions to wtCaM monitored by MspA nanopore trapping
[2] = tested on: M2 MspA; parameters: species or system Mycobacterium smegmatis; settings: for mean dwell time (τoff), mean ± std / mean interevent duration time (τon), mean ± std: N=3
[3] = […] KCl/1.0M CaCl2, +100 mV, listed as LYSOZYME
[4] = […] KCl/[…] KCl, +100 mV, listed as LYSOZYME
[5] = […] KCl/[…] KCl, +100 mV, listed as APO-MYOGLOBIN

[Ba+2] [Ba^2+]
Proportion of Apo-wtCaM events [1]: 95.6 ± 2.9% | Proportion of Holo-wtCaM events (binding capacity) [1]: 4.4% and 4.4 ± 2.9% | binding capacity to wtCaM, in words [1]: poor binding capacity | ΔI/I0 of Apo-wtCaM events [1]: 51.6 ± 0.6% | ΔI/I0 of Holo-wtCaM events [1]: 86.9 ± 1.0%

[Ca+2] [Ca^2+]
ion concentration that fully activates wtCaM ([1]; 0.3 μM wtCaM): 0.6 mM | Proportion of Apo-wtCaM events ([1]; 2 mM ion, 0.6 μM wtCaM): 21.2 ± 3.1% | Proportion of Holo-wtCaM events (binding capacity) ([1]; 2 mM ion, 0.6 μM wtCaM): 54% and 54.1 ± 4.8% | Proportion of Transient States events ([1]; 2 mM ion, 0.6 μM wtCaM): 24.8 ± 2.7% | ΔI/I0 of Apo-wtCaM events ([1]; 2 mM ion, 0.6 μM wtCaM): 56.8±1.1% | ΔI/I0 of Holo-wtCaM events ([1]; 2 mM ion, 0.6 μM wtCaM): 90.4±0.2% | ΔI/I0 of Transient States events ([1]; 2 mM ion, 0.6 μM wtCaM): 75.0±2.1% | binding capacity to wtCaM, in words ([1]; nanopore trapping): strong binding affinity

[Mg+2] [Mg^2+]
Proportion of Apo-wtCaM events ([1]; 2 mM ion, 0.6 μM wtCaM): 96.0 ± 1.7% | Proportion of Holo-wtCaM events (binding capacity) ([1]; 2 mM ion, 0.6 μM wtCaM): 4.0% and 4.0 ± 1.7% | ΔI/I0 of Apo-wtCaM events ([1]; 2 mM ion, 0.6 μM wtCaM): 52.6 ± 0.4% | ΔI/I0 of Holo-wtCaM events ([1]; 2 mM ion, 0.6 μM wtCaM): 88.8 ± 1.1% | binding capacity to wtCaM, in words ([1]; nanopore trapping): poor binding capacity

[Pb+2] [Pb^2+]
Proportion of Holo-wtCaM events (binding capacity) [1]: 62.0±3.1% | Proportion of Transient States events [1]: 38.0 ± 3.1% | binding capacity to wtCaM, in words [1]: even stronger than that of Ca^2+ | ΔI/I0 of Holo-wtCaM events [1]: 90.6 ± 0.7% | ΔI/I0 of Transient States events [1]: 77.91 ± 0.13%

[Sr+2] [Sr^2+]
Proportion of Apo-wtCaM events ([1]; 2 mM ion, 0.6 μM wtCaM): 73.1 ± 1.4% | Proportion of Holo-wtCaM events (binding capacity) ([1]; 2 mM ion, 0.6 μM wtCaM): 14.0±2.4% | Proportion of Transient States events ([1]; 2 mM ion, 0.6 μM wtCaM): 12.6 ± 0.4% | ΔI/I0 of Apo-wtCaM events ([1]; 2 mM ion, 0.6 μM wtCaM): 54.0 ± 0.5% | ΔI/I0 of Holo-wtCaM events ([1]; 2 mM ion, 0.6 μM wtCaM): 90.22 ± 0.16% | ΔI/I0 of Transient States events ([1]; 2 mM ion, 0.6 μM wtCaM): 75.7 ± 1.5% | binding capacity to wtCaM, in words ([1]; nanopore trapping): slightly better binding capacity to wtCaM than that of Mg^2+ or Ba^2+

[Tb+3] [Tb^3+]
ion concentration that fully activates apo-wtCaM ([1]; 0.3 μM apo-wtCaM): 5 µM | concentration regime in which Tb-wtCaM events were observed ([1]; 0.3 μM wtCaM): 0.05 to 120 µM | concentration regime in which the pre-aggregated state was observed ([1]; 0.3 μM wtCaM): 15 to 200 µM | ion concentration with complete disappearance of events (aggregation of wtCaM) ([1]; 0.3 μM wtCaM): 500 µM | binding capacity to wtCaM, in words ([1]; nanopore trapping): stronger than that of Ca^2+

lysozyme: lysozyme from chicken egg white, representative basic protein
1/τon ([2]; +60 mV, […] KCl/1.0M CaCl2): (1.0 ± 0.2) × 10^−2 MS^−1 | τoff ([2]; +60 mV, […] KCl/1.0M CaCl2): 35.5 ± 0.9 MS | 1/τon ([2]; +80 mV, […] KCl/1.0M CaCl2): (1.4 ± 0.4) × 10^−2 MS^−1 | τoff ([2]; +80 mV, […] KCl/1.0M CaCl2): 47.8 ± 6.7 MS | 1/τon ([2]; +100 mV, […] KCl/1.0M CaCl2): (1.8 ± 0.2) × 10^−2 MS^−1 | τoff ([2]; +100 mV, […] KCl/1.0M CaCl2): 47.3 ± 3.5 MS | 1/τon ([2]; +120 mV, […] KCl/1.0M CaCl2): (1.8 ± 0.3) × 10^−2 MS^−1 | τoff ([2]; +120 mV, […] KCl/1.0M CaCl2): 38.8 ± 8.9 MS | mean dwell time (τoff), mean ± std ([2]; […] KCl/1.0M CaCl2, +100 mV): 47.3±3.5 MS | mean interevent duration time (τon), mean ± std ([2]; […] KCl/1.0M CaCl2, +100 mV): 38.0±11.0 MS | mean dwell time (τoff), mean ± std [2, 3]: 47.3 ± 3.5 MS | mean interevent duration time (τon), mean ± std [2, 3]: 38.0 ± 11.0 MS | mean dwell time (τoff), mean ± std ([2]; […] KCl/[…] KCl, +100 mV): 5.4±0.2 MS | mean interevent duration time (τon), mean ± std ([2]; […] KCl/[…] KCl, +100 mV): 460.7±51.2 MS | mean dwell time (τoff), mean ± std [2, 4]: 5.4 ± 0.2 MS | mean interevent duration time (τon), mean ± std [2, 4]: 460.7 ± 51.2 MS | 1/τon ([2]; concentration 0.21 (MM), +100 mV): (6.4 ± 2.6) × 10^−3 MS^−1 | 1/τon ([2]; concentration 0.42 (MM), +100 mV): (2.8 ± 0.8) × 10^−2 MS^−1 | 1/τon ([2]; concentration 0.63 (MM), +100 mV): (4.2 ± 1.2) × 10^−2 MS^−1 | 1/τon ([2]; concentration 0.83 (MM), +100 mV): (5.5 ± 0.7) × 10^−2 MS^−1

B1: apo-myoglobin: heme-free myoglobin from equine skeletal muscle (protein, UniProt P68082 2-154, looked up)
Myoglobin: GLSDGEWQQVLNVWGKVEADIAGHGQEVLIRLFTGHPETLEKFDKFKHLKTEAEMKASEDLKKHGTVVLTALGGILKKKGHHEAELKPLAQSHATKHKIPIKYLEFISDAIIHVLHSKHPGDFGADAQGAMTKALELFRNDIAAKYKELGFQG
modifications: heme-free apo form
notes: heme-free myoglobin from equine skeletal muscle
1/τon ([2]; +60 mV, […] KCl/1.0M CaCl2): (1.0 ± 0.3) × 10^−3 MS^−1 | τoff ([2]; +60 mV, […] KCl/1.0M CaCl2): 99.3 ± 20.2 MS | 1/τon ([2]; +80 mV, […] KCl/1.0M CaCl2): (2.0 ± 0.5) × 10^−3 MS^−1 | τoff ([2]; +80 mV, […] KCl/1.0M CaCl2): 317.5 ± 18.3 MS | 1/τon ([2]; +100 mV, […] KCl/1.0M CaCl2): (2.8 ± 0.3) × 10^−3 MS^−1 | τoff ([2]; +100 mV, […] KCl/1.0M CaCl2): 531.0 ± 27.5 MS | 1/τon ([2]; +120 mV, […] KCl/1.0M CaCl2): (4.5 ± 0.6) × 10^−3 MS^−1 | τoff ([2]; +120 mV, […] KCl/1.0M CaCl2): 522.0 ± 15.0 MS | mean dwell time (τoff), mean ± std ([2]; […] KCl/1.0M CaCl2, +100 mV): 531.0±27.5 MS | mean interevent duration time (τon), mean ± std ([2]; […] KCl/1.0M CaCl2, +100 mV): 365.1 ± 27.9 MS | mean dwell time (τoff), mean ± std ([2]; […] KCl/1.0M CaCl2, +100 mV, listed as APO-MYOGLOBIN): 531.0 ± 27.5 MS | mean dwell time (τoff), mean ± std ([2]; […] KCl/[…] KCl, +100 mV): 7.3±1.3 MS | mean dwell time (τoff), mean ± std [2, 5]: 7.3 ± 1.3 MS | mean interevent duration time (τon), mean ± std [2, 5]: 3640.4 ± 633.6 MS | 1/τon ([2]; concentration 0.04 (MM), +100 mV): (4.4 ± 0.5) × 10^−4 MS^−1 | 1/τon ([2]; concentration 0.07 (MM), +100 mV): (9.9 ± 0.9) × 10^−3 MS^−1 | 1/τon ([2]; concentration 0.11 (MM), +100 mV): (2.1 ± 0.2) × 10^−3 MS^−1 | 1/τon ([2]; concentration 0.14 (MM), +100 mV): (2.8 ± 0.2) × 10^−3 MS^−1
